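Protocol summary: plate cells (96-well), add compound at 5 concentrations, incubate 48 h, interpolate endpoints linearly. The concentration for 50% growth inhibition is given as GI50.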 Activity calls are given as the source filed them. Rule as the data show it: active = GI50 up to about 1.1 µM and inactive = higher.
Key:
Experiment in all cases: NCI anticancer screen, dose series, 48 h
A498 = test system: A498
A549 = test system: A549
CCRF-CEM = test system: CCRF-CEM
DLD-1 = test system: DLD-1
DMS-114 = test system: DMS-114
EKVX = test system: EKVX
HCC 2998 = test system: HCC 2998
HOP-18 = test system: HOP-18
KM-20L2 = test system: KM-20L2
KM12 = test system: KM12
NCI-H460 = test system: NCI-H460
OVCAR-3 = test system: OVCAR-3
OVCAR-5 = test system: OVCAR-5
OVCAR-8 = test system: OVCAR-8
SF-539 = test system: SF-539
SNB-75 = test system: SNB-75
SW-620 = test system: SW-620
UACC-62 = test system: UACC-62
HL-60 = test system: HL-60

Measured: GI50

COC(=O)/C(=C\c1ccc(N(CCC#N)CCC#N)cc1)NC(=O)c1cc([N+](=O)[O-])ccc1Cl
inactive: A498 > 100 µM | A549 > 100 µM | CCRF-CEM > 100 µM | DLD-1 > 100 µM | DMS-114 > 100 µM | EKVX > 100 µM | HCC 2998 > 100 µM | HOP-18 > 100 µM | KM-20L2 > 100 µM | KM12 > 100 µM | NCI-H460 > 100 µM | OVCAR-3 > 100 µM | OVCAR-5 > 100 µM | OVCAR-8 > 100 µM | SF-539 > 100 µM | SNB-75 > 100 µM | SW-620 > 100 µM | UACC-62 > 100 µM

Cc1nc2ccccc2c(=O)n1/N=C(\N=N\c1ccc(Cl)cc1)c1ccc(N(C)C)cc1
inactive: A498 > 100 µM | A549 > 100 µM | CCRF-CEM 81.5 µM | DLD-1 71.4 µM | DMS-114 38.9 µM | EKVX > 100 µM | HOP-18 46 µM | KM-20L2 > 100 µM | NCI-H460 93.8 µM | OVCAR-8 > 100 µM | SF-539 > 100 µM | SW-620 > 100 µM | UACC-62 70.3 µM

Cc1ccc(NC(=O)CC/C(CC(=O)C(C)(C)C)=N/NC(=O)C[N+](C)(C)C)cc1C
inactive: A549 21.7 µM | CCRF-CEM > 100 µM | DLD-1 > 100 µM | DMS-114 > 100 µM | EKVX > 100 µM | HCC 2998 > 100 µM | HL-60 > 100 µM | HOP-18 > 100 µM | KM-20L2 > 100 µM | KM12 > 100 µM | NCI-H460 > 100 µM | OVCAR-3 > 100 µM | OVCAR-5 > 100 µM | OVCAR-8 > 100 µM | SF-539 18.6 µM | SW-620 > 100 µM | UACC-62 > 100 µM

Clc1ccc(CCN2CCOCC2)c(Cl)c1
inactive: A498 > 100 µM | A549 > 100 µM | CCRF-CEM > 100 µM | DLD-1 > 100 µM | DMS-114 > 100 µM | EKVX > 100 µM | HCC 2998 > 100 µM | HL-60 > 100 µM | HOP-18 > 100 µM | KM-20L2 > 100 µM | KM12 > 100 µM | NCI-H460 > 100 µM | OVCAR-5 > 100 µM | OVCAR-8 > 100 µM | SF-539 > 100 µM | SNB-75 17.6 µM | UACC-62 92.5 µM

CC1=C(C(=O)CC(=O)C(=O)Nc2ccccc2)Sc2ccccc2N1
inactive: A498 > 100 µM | A549 > 100 µM | CCRF-CEM > 100 µM | DLD-1 > 100 µM | DMS-114 > 100 µM | EKVX > 100 µM | HL-60 > 100 µM | HOP-18 78.3 µM | KM-20L2 > 100 µM | KM12 > 100 µM | NCI-H460 > 100 µM | OVCAR-3 > 100 µM | OVCAR-5 > 100 µM | OVCAR-8 > 100 µM | SF-539 > 100 µM | SW-620 > 100 µM | UACC-62 > 100 µM

CC(=O)OC1C2CCC1C1C2C2(Cl)C(Cl)=C(Cl)C1(Cl)C2(Cl)Cl (centres undefined)
inactive: A498 13.9 µM | A549 10.5 µM | DLD-1 15.1 µM | DMS-114 12.6 µM | EKVX 11.3 µM | HOP-18 18.9 µM | KM-20L2 10.1 µM | KM12 13 µM | NCI-H460 14.3 µM | OVCAR-3 11.4 µM | OVCAR-5 11.1 µM | OVCAR-8 15.4 µM | SF-539 16.6 µM | SNB-75 14.7 µM | SW-620 14.5 µM | UACC-62 12.4 µM

CP1(=O)CCCCC1
inactive: A549 > 100 µM | CCRF-CEM > 100 µM | DLD-1 > 100 µM | DMS-114 > 100 µM | EKVX > 100 µM | HCC 2998 > 100 µM | HL-60 > 100 µM | HOP-18 > 100 µM | KM-20L2 > 100 µM | KM12 > 100 µM | NCI-H460 > 100 µM | OVCAR-3 > 100 µM | OVCAR-5 > 100 µM | OVCAR-8 > 100 µM | SF-539 > 100 µM | SNB-75 > 100 µM | SW-620 > 100 µM | UACC-62 > 100 µM

OCC(O)C(O)C(O)c1nn(-c2ccccc2)c2nc3cc(Cl)c(Cl)cc3nc12 (centres undefined)
inactive: A549 26.7 µM | CCRF-CEM 40.5 µM | DLD-1 30.1 µM | DMS-114 31.6 µM | EKVX 51.6 µM | HCC 2998 32.9 µM | HL-60 27 µM | HOP-18 67.5 µM | KM-20L2 37.2 µM | KM12 > 10 µM | NCI-H460 44.1 µM | OVCAR-3 40.3 µM | OVCAR-5 28.6 µM | OVCAR-8 70.8 µM | SF-539 18.6 µM | SNB-75 20.3 µM | SW-620 88.9 µM | UACC-62 28.8 µM
